The source of these data is US20200405716A1, “HISTONE DEACETYLASE 6 (HDAC6) BIOMARKERS IN MULTIPLE MYELOMA” (Acetylon Pharmaceuticals, Inc., priority 2013, published 2020).

SMILES strings stand for the structures.

Common to all, as to assay type: cell-based, Human
Experiment [1] concerns multiple myeloma cell line MM.1S. Nature of the experiment: microRNA and mRNA array, treated MM.1S cells. The conditions noted are these: 37° C., 6 hours. An excerpt:
The Human miRNome Complete RT^2 miRNA PCR Array profiles the expression of the 752 most abundantly expressed and best characterized microRNA (miRNA) sequences in the Human miRNA genome (miRNome), as annotated by the Sanger miRBase Release 14. The Illumina Gene Expression Beadchip content provides genome-wide transcriptional coverage of well-characterized genes, gene candidates, and splice variants. Each array on the BeadChip targets more than 47,000 probes derived from the National Center for Biotechnology Information Reference Sequence (NCBI) RefSeq Release 38 (Nov. 7, 2009) and other sources. Compound D was incubated with a multiple myeloma cell line (MM.1S or RPMI8226) or a stromal cell line (HS-5) at 37° C. for 6 hours. The concentration of Compound D was 2 uM. Alternatively, Compound A was incubated with the multiple myeloma cell line MM.1S at 37° C. for 6 hours. Total RNA was extracted from the treated cells (e.g., MM.1S cells and RPMI8226 cells) and analyzed using microRNA array. […] The numbers shown are normalized to the expression level of the corresponding biomarker in control cells. For example, the expression level of biomarker hsa-miR-346 was 0.26, which means that the expression level of this biomarker in treated MM.1S cells was 26% of the expression level of this biomarker in MM.1S control cells. Conversely, the expression level of biomarker hsa-miR-145 was 3.09, which means that the expression level of this biomarker in treated MM.1S cells was 3.09 fold of the expression level of this biomarker in MM.1S control cells.

For experiment [2], the system named is multiple myeloma cell line RPMI8226. Put plainly: microRNA and mRNA array, treated RPMI8226 cells. The following applies: RPMI-8226 cells, Compound D 2 uM, 37° C., 6 hours. An excerpt: (§1) The Human miRNome Complete RT^2 miRNA PCR Array profiles the expression of the 752 most abundantly expressed and best characterized microRNA (miRNA) sequences in the Human miRNA genome (miRNome), as annotated by the Sanger miRBase Release 14.
(§2) The Illumina Gene Expression Beadchip content provides genome-wide transcriptional coverage of well-characterized genes, gene candidates, and splice variants. Each array on the BeadChip targets more than 47,000 probes derived from the National Center for Biotechnology Information Reference Sequence (NCBI) RefSeq Release 38 (Nov. 7, 2009) and other sources.
(§3) Compound D was incubated with a multiple myeloma cell line (MM.1S or RPMI8226) or a stromal cell line (HS-5) at 37° C. for 6 hours. The concentration of Compound D was 2 uM.
(§4) Total RNA was extracted from the treated cells (e.g., MM.1S cells and RPMI8226 cells) and analyzed using microRNA array.
(§5) The numbers shown are normalized to the expression level of the corresponding biomarker in control cells. For example, the expression level of biomarker hsa-miR-346 was 0.26, which means that the expression level of this biomarker in treated MM.1S cells was 26% of the expression level of this biomarker in MM.1S control cells. Conversely, the expression level of biomarker hsa-miR-145 was 3.09, which means that the expression level of this biomarker in treated MM.1S cells was 3.09 fold of the expression level of this biomarker in MM.1S control cells.

Experiment [3] concerns stromal cell line HS-5. Put plainly: microRNA and mRNA array, treated stromal HS-5 cells. The following applies: Compound D 2 uM, 37° C., 6 hours.
From the text: as §1, §2, §3, §4, §5

Setting [4] is: Compound A (concentration not given).

On to `O=C(CCCCCCNC(=O)c1cnc(N(c2ccccc2)c2ccccc2)nc1)NO` [Compound A, 2-(diphenylamino)-N-(7-(hydroxyamino)-7-oxoheptyl) pyrimidine-5-carboxamide], for which, in experiment [1] (setting [4]), the “expression of small non-coding RNA SEQ ID NO: 26 normalized to control cells” value stood at 0.74 and the “expression of small non-coding RNA SEQ ID NO: 27 normalized to control cells” value is 0.74.
Consider `O=C(NO)c1cnc(NC2(c3ccccc3)CC2)nc1` [Compound D, N-hydroxy-2-((1-phenylcyclopropyl)amino)pyrimidine-5-carboxamide], for which, in experiment [1] (Compound D 2 uM), the “expression of miRNA SEQ ID NO: 1 (hsa-miR-346) normalized to control cells” value is on record as 0.26, the “expression of miRNA SEQ ID NO: 2 normalized to control cells” value is 0.33, the “expression of miRNA SEQ ID NO: 3 normalized to control cells” value stood at 0.23 and the “expression of miRNA SEQ ID NO: 4 normalized to control cells” value turned out to be 0.27. In addition, in experiment [1] (Compound D 2 uM), the “expression of miRNA SEQ ID NO: 5 normalized to control cells” value is 0.31, the “expression of miRNA SEQ ID NO: 12 (hsa-miR-145) normalized to control cells” value is 3.09, the “expression of miRNA SEQ ID NO: 13 normalized to control cells” value is recorded as 3.53 and the “expression of miRNA SEQ ID NO: 14 normalized to control cells” value was 3.19. Also, in experiment [1] (Compound D 2 uM), the “expression of miRNA SEQ ID NO: 15 normalized to control cells” value is 3.29, the “expression of miRNA SEQ ID NO: 16 normalized to control cells” value was 4.68, the “expression of small non-coding RNA SEQ ID NO: 26 normalized to control cells” value was determined as 0.46 and the “expression of small non-coding RNA SEQ ID NO: 27 normalized to control cells” value is recorded as 0.45. Also, in experiment [2], the “expression of miRNA SEQ ID NO: 2 normalized to control cells” value is 0.09, the “expression of miRNA SEQ ID NO: 6 normalized to control cells” value worked out at 0.28, the “expression of miRNA SEQ ID NO: 7 normalized to control cells” value stood at 0.25 and the “expression of miRNA SEQ ID NO: 8 normalized to control cells” value turned out to be 0.33. Moreover, in experiment [2], the “expression of miRNA SEQ ID NO: 9 normalized to control cells” value is listed as 0.24, the “expression of miRNA SEQ ID NO: 17 normalized to control cells” value came to 3.22 and the “expression of miRNA SEQ ID NO: 18 normalized to control cells” value amounted to 3.31. In experiment [3], the “HIF-1a expression level in treated cells as % of the expression level in control cells” value turned out to be 49%; the “PTPRU expression level in treated cells, fold of the expression level in control cells” value is reported as 2.52 fold; the “expression of mRNA SEQ ID NO: 24 (HIF-1a) normalized to control cells” value turned out to be 0.49; the “expression of mRNA SEQ ID NO: 25 (PTPRU) normalized to control cells” value is reported as 2.52. Also, in experiment [3], the “expression of miRNA SEQ ID NO: 10 normalized to control cells” value is recorded as 0.26, the “expression of miRNA SEQ ID NO: 11 normalized to control cells” value is 0.15, the “expression of miRNA SEQ ID NO: 19 normalized to control cells” value was 6.64 and the “expression of miRNA SEQ ID NO: 20 normalized to control cells” value turned out to be 21.71. Besides, in experiment [3], the “expression of miRNA SEQ ID NO: 21 normalized to control cells” value turned out to be 54.35, the “expression of miRNA SEQ ID NO: 22 normalized to control cells” value was 5.95 and the “expression of miRNA SEQ ID NO: 23 normalized to control cells” value was found to be 3.52.
